The assay concerns affected regions of atopic patients. Nature of the assay: itch and area of inflammation after 1 week of application in atopic patients. Type of assay: in vivo, human. The conditions noted are these: number of 3 atopic patients; daily application for 1 week. As to the method:
The dermatologic preparations of Examples 1 to 3 and the dermatologic preparations for comparison of Reference Examples 1 to 3 were evaluated for itch and the area of inflammation 1 week after application.
To the affected regions of 3 atopic patients (1 adult, 1 adult, and 1 child), was applied an adequate amount of each oil produced in Examples 1 to 3 and Reference Examples 1 to 3 after bathing every day. After application for 1 week, itch and the inflammatory area were evaluated. During the treatment period, the drugs used previously were continued. In the child who could not describe itch, itch was evaluated based on the behavior of scratching at the affected region.

For the substance “1,3-dioctanoyl-2-eicosapentaenoyl glycerol [Example 2]”, the “inflammatory area: no change” value is on record as 0 patients, the “inflammatory area: reduced” value came to 3 patients, the “inflammatory area: widened” value is 0 patients and the “itch: improved” value is given as 3 patients. Also, the “itch: no change” value was 0 patients and the “itch: worsened” value is 0 patients.
